Measured values: article PMC6515479, “An Investigation on Glucuronidation Metabolite Identification, Isozyme Contribution, and Species Differences of GL-V9 In Vitro and In Vivo” (Molecules, 2019)

Columns and labels:
Type in all cases: in vitro ADME
rUGT1A10 = molecular target: T1, rUGT1A10 (Homo sapiens, UniProt Q9HAW8); assay: UGT phenotyping of GL-V9 glucuronidation, rUGT1A10; conditions: GL-V9 0.5, 1, 5 μM, 37 °C, 1 h
T1 construct: purchased Corning (Woburn, MA, USA)
T1 sequence (Q9HAW8 26-530): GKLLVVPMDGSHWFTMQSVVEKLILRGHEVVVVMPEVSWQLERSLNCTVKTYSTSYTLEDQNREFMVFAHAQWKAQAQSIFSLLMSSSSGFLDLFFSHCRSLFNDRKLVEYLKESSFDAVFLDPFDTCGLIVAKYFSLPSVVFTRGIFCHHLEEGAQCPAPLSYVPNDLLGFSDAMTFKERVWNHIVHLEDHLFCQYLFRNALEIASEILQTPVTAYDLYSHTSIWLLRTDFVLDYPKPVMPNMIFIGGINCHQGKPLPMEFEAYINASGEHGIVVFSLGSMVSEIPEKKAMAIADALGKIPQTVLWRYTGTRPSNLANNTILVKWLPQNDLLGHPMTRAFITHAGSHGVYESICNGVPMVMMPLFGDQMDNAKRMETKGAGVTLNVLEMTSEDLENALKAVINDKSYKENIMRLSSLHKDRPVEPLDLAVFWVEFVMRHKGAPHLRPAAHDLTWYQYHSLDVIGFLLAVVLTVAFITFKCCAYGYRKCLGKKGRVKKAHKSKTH
Procedure: (§1) The composition of the incubation system (200 μL) contained liver microsomes of different species (0.1 mg protein/mL), 5 mM saccharolactone (D-saccharic acid 1,4-lactone monohydrate), 10 mM MgCl2, alamethicin (50 μg/mg protein), Tris-HCl buffer (50 mM, pH 7.4) and GL-V9 (1 μM). After 5 min of preincubation at 37 °C, UDPGA (5 mM) was added to initiate the phase II reaction. Control incubation samples were performed without UDPGA or without substrates (GL-V9). The reaction was terminated by addition of ice-cold methanol (three volumes) after incubation for 1 h at 37 °C. Samples were vortexed, centrifuged at 21,500× g for 10 min and then stored at 4 °C until HPLC-UV-TripleTOF analysis. To confirm that these metabolites are conjugates resulting from glucuronidation reaction, enzymatic hydrolysis of samples was processed. β-glucuronidase (100 KU, Sigma) was added and the hydrolysis was performed overnight at 37 °C. The control samples were carried out without β-glucuronidase under the same condition.
(§2) Twelve human recombinant UGT isoforms (rUGT1A1, rUGT1A3, rUGT1A4, rUGT1A6, rUGT1A7, rUGT1A8, rUGT1A9, rUGT1A10, rUGT2B4, rUGT2B7, rUGT2B15, and rUGT2B17) were employed to identify the main UGT enzyme(s) responsible for glucuronidation of GL-V9 under mixture conditions as described in Section 4.3. […]

rUGT2B7 = molecular target: T2, rUGT2B7 (Homo sapiens, UniProt P16662); assay: UGT phenotyping of GL-V9 glucuronidation, rUGT2B7; conditions: GL-V9 0.5, 1, 5 μM, 37 °C, 1 h
T2 construct: purchased Corning (Woburn, MA, USA)
T2 sequence (P16662 24-529): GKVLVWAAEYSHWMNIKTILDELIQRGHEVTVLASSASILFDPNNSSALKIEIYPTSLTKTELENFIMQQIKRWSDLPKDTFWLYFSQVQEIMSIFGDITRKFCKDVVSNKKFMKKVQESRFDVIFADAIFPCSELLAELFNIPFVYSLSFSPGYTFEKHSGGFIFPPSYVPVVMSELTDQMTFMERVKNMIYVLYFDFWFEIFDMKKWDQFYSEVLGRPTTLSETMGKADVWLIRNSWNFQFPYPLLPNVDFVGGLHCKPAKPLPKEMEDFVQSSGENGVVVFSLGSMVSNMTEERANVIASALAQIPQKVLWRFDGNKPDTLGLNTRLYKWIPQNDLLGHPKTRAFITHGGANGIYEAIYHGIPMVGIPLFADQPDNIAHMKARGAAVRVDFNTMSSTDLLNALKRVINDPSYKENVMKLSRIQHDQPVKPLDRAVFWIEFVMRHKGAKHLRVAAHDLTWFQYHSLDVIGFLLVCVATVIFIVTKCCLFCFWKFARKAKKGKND
Procedure: as §1, §2

[1] = test system: rat liver microsomes (RLMs); assay: Enzyme kinetics of GL-V9 glucuronidation in rat liver microsomes (RLMs); conditions: formation of 5-O-glucuronide GL-V9, protein 0.1 mg/mL, mean ± SD, n = 3
Procedure: as §1
(§3) Enzyme kinetics experiments were carried out in triplicate among five different species, including monkey, beagle dog, rat, mouse, and human. The reaction system and operations are as same as described in Section 4.3. The solutions of GL-V9 were selected over a range of concentrations (0.05, 0.2, 0.5, 1, 2, 5, 10, 20 μM). […]

[2] = as above; conditions: rat, liver microsomes, pH 7.4, formation of 5-O-glucuronide GL-V9, protein 0.1 mg/mL, mean ± SD, n = 3
Procedure: as §1, §3

[3] = Enzyme kinetics of GL-V9 glucuronidation in human liver microsomes (HLMs); conditions: human, liver microsomes, pH 7.4, formation of 5-O-glucuronide GL-V9, protein 0.075 mg/mL, mean ± SD, n = 3
Procedure: as §1, §3

[4] = test system: human liver microsomes (HLMs); assay: as above; conditions: formation of 5-O-glucuronide GL-V9, protein 0.075 mg/mL, mean ± SD, n = 3
Procedure: as §1, §3

Metabolism rate (glucuronidation) (rUGT1A10): too low to be biologically relevant | Catalytic activity in the production of 5-O-glucuronide GL-V9 (rUGT2B7): did not show apparent catalytic activity | Vmax [1]: 32.72 ± 1.45 pmol/min/mg | Km at 1 h [2]: 6.54 ± 0.33 µM | Km at 1 h [3]: 11.2 ± 0.66 µM | Vmax [4]: 88.49 ± 4.21 pmol/min/mg
Compound: COc1c(OCCCCN2CCCC2)cc(O)c2c(=O)cc(-c3ccccc3)oc12 [GL-V9]
